Laboratory results reported in patent US9023789B2, “Amylin analogs and pharmaceutical compositions thereof” (Novo Nordisk A/S, priority 2012, dated 2015).
≈ marks a conversion by molar mass, not a printed value. Read-outs that look alike come from different tables or passages of the source. Numbered stars: 1 amine (or outer) side, 2 acyl side, 3 side chain; on linkers, the order of the positions; unused ones are H or OH. Bridge positions count the residues as written; N and C are the ends. Side chains are listed from the residue outwards. Peptide text beside a SMILES is read from it. * marks the point of attachment. C20 diacid = O=C(O)CCCCCCCCCCCCCCCCCCC(=O)*; γGlu = O=C(O)[C@H](CCC(=O)[*:2])N[*:1]; AEEA = NCCOCCOCC(=O)O

How the values were obtained:
[1] = ASSAY (IV) determination of solubility; type: physicochemical
How it was run: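 Polypeptide stock in water ([…]) was mixed 1:1 with 100 mM buffers: glycylglycine at pH 3.0, 4.0, 5.0 and bistrispropane at pH 6.0, 6.5, 7.0, 7.5, 8.0. After 18 hours at room temperature, samples were centrifuged and polypeptide concentration measured by UPLC.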

Sprague Dawley (SD) rats = assay: ASSAY (I) efficacy testing on appetite (food intake) using an ad libitum fed rat model; type: in vivo; conditions: rat, 30 nmol/kg
How it was run: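 Ad libitum fed SD rats (200–250 g) were housed singly on a reversed light/dark cycle and given one 0.01–3 mg/kg dose ip, po or sc just before lights-off, with 5–8 per dose group plus vehicle controls. Food intake was recorded hourly for 7 h, then at 24 h and sometimes 48 h; Grubbs outliers were excluded.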

[2] = ASSAY (III) ThT fibrillation assay for physical stability; type: physicochemical
How it was run: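 Formulations with 1 μM ThT, pH adjusted as required, incubated at 37 °C with 960 rpm orbital shaking; fluorescence (ex 444/em 485 nm) read every 20 min. Fibrillation reported as mean ThT fluorescence ± SD of 4–8 replicates at time points; polypeptide concentration measured by reverse-phase HPLC before and after, post-centrifugation.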

[3] = bistrispropane buffer, pH 6.5, read-out: Solubility pH 6.5 Concentration
[4] = bistrispropane buffer, pH 7.5, read-out: Solubility pH 7.5 Concentration
[5] = bistrispropane buffer, pH 6.0, read-out: Solubility pH 6.0 Concentration
[6] = bistrispropane buffer, pH 7.0, read-out: Solubility pH 7.0 Concentration
[7] = bistrispropane buffer, pH 8.0, read-out: Solubility pH 8.0 Concentration
[8] = glycylglycine buffer, pH 3.0, read-out: Solubility pH 3.0 Concentration
[9] = glycylglycine buffer, pH 4.0, read-out: Solubility pH 4.0 Concentration
[10] = glycylglycine buffer, pH 5.0, read-out: Solubility pH 5.0 Concentration

## CC[C@H](C)[C@H](NC(=O)[C@H](C)NC(=O)CNC(=O)[C@H](Cc1ccccc1)NC(=O)[C@H](CC(N)=O)NC(=O)[C@@H]1CCCN1C(=O)[C@H](CO)NC(=O)[C@H](CO)NC(=O)[C@H](Cc1c[nH]cn1)NC(=O)[C@H](CCCNC(=N)N)NC(=O)[C@H](CC(C)C)NC(=O)[C@H](Cc1ccccc1)NC(=O)[C@H](CCC(=O)O)NC(=O)[C@H](C)NC(=O)[C@H](CC(C)C)NC(=O)[C@H](CCCNC(=N)N)NC(=O)[C@H](CCC(N)=O)NC(=O)[C@@H](NC(=O)[C@H](C)NC(=O)[C@@H]1CSSC[C@H](NC(=O)[C@@H](N)CCCCNC(=O)CC[C@H](NC(=O)CC[C@H](NC(=O)CCCCCCCCCCCCCCCCCCC(=O)O)C(=O)O)C(=O)O)C(=O)N[C@@H](CC(N)=O)C(=O)N[C@@H]([C@@H](C)O)C(=O)N[C@@H](C)C(=O)N[C@@H]([C@@H](C)O)C(=O)N1)[C@@H](C)O)C(=O)N1CCC[C@H]1C(=O)N[C@@H](CO)C(=O)N[C@@H](CO)C(=O)N[C@H](C(=O)N[C@@H](CC(N)=O)C(=O)N[C@H](C(=O)NCC(=O)N[C@@H](Cc1c[nH]cn1)C(=O)N[C@@H](CC(N)=O)C(=O)N[C@H](C(=O)N[C@@H](Cc1ccc(O)cc1)C(N)=O)[C@@H](C)O)C(C)C)[C@@H](C)O [Example 87] (H-K([γGlu-γGlu-C20 diacid])CNTATCATQRLAEFLRHSSPNFGAIPSSTNVGHNTY-NH2; disulfide 2-7)
[1]; [3]
  solubility at 18 h: 144 µM (≈ 659 µg/mL)
[1]; [4]
  solubility at 18 h: ≥ 200 µM
[1]; [5]
  solubility at 18 h: 156 µM (≈ 714 µg/mL)
[1]; [6]
  solubility at 18 h: 146 µM (≈ 668 µg/mL)
[1]; [7]
  solubility at 18 h: ≥ 200 µM
[1]; [8]
  solubility at 18 h: ≥ 200 µM
[1]; [9]
  solubility at 18 h: ≥ 200 µM
[1]; [10]
  solubility at 18 h: ≥ 200 µM
Sprague Dawley (SD) rats
  Food intake reduction 0-24 h 30 nmol/kg (%): 29%
  Food intake reduction 24-48 h 30 nmol/kg (%): 20%
[2]
  ThT pH 4.0 lag time (h): 45 h

## CC[C@H](C)[C@H](NC(=O)[C@H](C)NC(=O)CNC(=O)[C@H](Cc1ccccc1)NC(=O)[C@H](CC(N)=O)NC(=O)[C@@H]1CCCN1C(=O)[C@H](CO)NC(=O)[C@H](CO)NC(=O)[C@H](Cc1c[nH]cn1)NC(=O)[C@H](CCCNC(=N)N)NC(=O)[C@H](CC(C)C)NC(=O)[C@H](Cc1ccccc1)NC(=O)[C@H](Cc1c[nH]cn1)NC(=O)[C@H](C)NC(=O)[C@H](CC(C)C)NC(=O)[C@H](CCCNC(=N)N)NC(=O)[C@H](CCC(N)=O)NC(=O)[C@@H](NC(=O)[C@H](C)NC(=O)[C@@H]1CSSC[C@H](NC(=O)[C@@H](N)CCCCNC(=O)CC[C@H](NC(=O)CCCCCCCCCCCCCCCCCCC(=O)O)C(=O)O)C(=O)N[C@@H](CC(N)=O)C(=O)N[C@@H]([C@@H](C)O)C(=O)N[C@@H](C)C(=O)N[C@@H]([C@@H](C)O)C(=O)N1)[C@@H](C)O)C(=O)N1CCC[C@H]1C(=O)N[C@@H](CO)C(=O)N[C@@H](CO)C(=O)N[C@H](C(=O)N[C@@H](CC(N)=O)C(=O)N[C@H](C(=O)NCC(=O)N1CCC[C@H]1C(=O)N[C@@H](CC(N)=O)C(=O)N[C@H](C(=O)N[C@@H](Cc1ccc(O)cc1)C(N)=O)[C@@H](C)O)C(C)C)[C@@H](C)O [Example 67] (H-K([γGlu-C20 diacid])CNTATCATQRLAHFLRHSSPNFGAIPSSTNVGPNTY-NH2; disulfide 2-7 (inferred); N-terminus assumed)
[1]; [3]
  solubility at 18 h: ≥ 200 µM
[1]; [4]
  solubility at 18 h: ≥ 200 µM
[1]; [5]
  solubility at 18 h: ≥ 200 µM
[1]; [6]
  solubility at 18 h: ≥ 200 µM
[1]; [7]
  solubility at 18 h: 178 µM (≈ 786 µg/mL)
[1]; [8]
  solubility at 18 h: ≥ 200 µM
[1]; [9]
  solubility at 18 h: ≥ 200 µM
[1]; [10]
  solubility at 18 h: ≥ 200 µM
Sprague Dawley (SD) rats
  Food intake reduction 0-24 h 30 nmol/kg (%): 47%
  Food intake reduction 24-48 h 30 nmol/kg (%): 0%
[2]
  ThT pH 4.0 lag time (h): 26 h

## CC[C@H](C)[C@H](NC(=O)[C@H](C)NC(=O)CNC(=O)[C@H](Cc1ccccc1)NC(=O)[C@H](CC(N)=O)NC(=O)[C@@H]1CCCN1C(=O)[C@H](CO)NC(=O)[C@H](CO)NC(=O)[C@H](Cc1c[nH]cn1)NC(=O)[C@H](CCCNC(=N)N)NC(=O)[C@H](CC(C)C)NC(=O)[C@H](Cc1ccccc1)NC(=O)[C@H](CCC(=O)O)NC(=O)[C@H](C)NC(=O)[C@H](CC(C)C)NC(=O)[C@H](CCCNC(=N)N)NC(=O)[C@H](CCC(N)=O)NC(=O)[C@@H](NC(=O)[C@H](C)NC(=O)[C@@H]1CSSC[C@H](NC(=O)[C@@H](N)CCCCNC(=O)CC[C@H](NC(=O)CC[C@H](NC(=O)CCCCCCCCCCCCCCCCCCC(=O)O)C(=O)O)C(=O)O)C(=O)N[C@@H](CC(N)=O)C(=O)N[C@@H]([C@@H](C)O)C(=O)N[C@@H](C)C(=O)N[C@@H]([C@@H](C)O)C(=O)N1)[C@@H](C)O)C(=O)N1CCC[C@H]1C(=O)N[C@@H](CO)C(=O)N[C@@H](CO)C(=O)N[C@H](C(=O)N[C@@H](CC(N)=O)C(=O)N[C@H](C(=O)NCC(=O)N[C@@H](Cc1c[nH]cn1)C(=O)N[C@@H](CCC(=O)O)C(=O)N[C@H](C(=O)N[C@@H](Cc1ccc(O)cc1)C(N)=O)[C@@H](C)O)C(C)C)[C@@H](C)O [Example 104] (H-K([γGlu-γGlu-C20 diacid])CNTATCATQRLAEFLRHSSPNFGAIPSSTNVGHETY-NH2; disulfide 2-7; N-terminus assumed)
[1]; [3]
  solubility at 18 h: ≥ 200 µM
[1]; [4]
  solubility at 18 h: ≥ 200 µM
[1]; [5]
  solubility at 18 h: ≥ 200 µM
[1]; [6]
  solubility at 18 h: ≥ 200 µM
[1]; [7]
  solubility at 18 h: ≥ 200 µM
[1]; [8]
  solubility at 18 h: ≥ 200 µM
[1]; [9]
  solubility at 18 h: ≥ 200 µM
[1]; [10]
  solubility at 18 h: ≥ 200 µM
Sprague Dawley (SD) rats
  Food intake reduction 0-24 h 30 nmol/kg (%): 31%
  Food intake reduction 24-48 h 30 nmol/kg (%): 28%
[2]
  ThT pH 4.0 lag time (h): 45 h

## CC[C@H](C)[C@H](NC(=O)[C@H](C)NC(=O)CNC(=O)[C@H](Cc1ccccc1)NC(=O)[C@H](CC(N)=O)NC(=O)[C@@H]1CCCN1C(=O)[C@H](CO)NC(=O)[C@H](CO)NC(=O)[C@H](Cc1c[nH]cn1)NC(=O)[C@H](CCCNC(=N)N)NC(=O)[C@H](CC(C)C)NC(=O)[C@H](Cc1ccccc1)NC(=O)[C@H](Cc1c[nH]cn1)NC(=O)[C@H](C)NC(=O)[C@H](CC(C)C)NC(=O)[C@H](CCCNC(=N)N)NC(=O)[C@H](CCC(N)=O)NC(=O)[C@@H](NC(=O)[C@H](C)NC(=O)[C@@H]1CSSC[C@H](NC(=O)[C@@H](N)CCCCNC(=O)COCCOCCNC(=O)CC[C@H](NC(=O)CCCCCCCCCCCCCCCCCCC(=O)O)C(=O)O)C(=O)N[C@@H](CC(N)=O)C(=O)N[C@@H]([C@@H](C)O)C(=O)N[C@@H](C)C(=O)N[C@@H]([C@@H](C)O)C(=O)N1)[C@@H](C)O)C(=O)N1CCC[C@H]1C(=O)N[C@@H](CO)C(=O)N[C@@H](CO)C(=O)N[C@H](C(=O)N1CCC[C@H]1C(=O)N[C@H](C(=O)NCC(=O)N[C@@H](CO)C(=O)N[C@@H](CC(N)=O)C(=O)N[C@H](C(=O)N[C@@H](Cc1ccc(O)cc1)C(N)=O)[C@@H](C)O)C(C)C)[C@@H](C)O [Example 61] (H-K([AEEA-γGlu-C20 diacid])CNTATCATQRLAHFLRHSSPNFGAIPSSTPVGSNTY-NH2; disulfide 2-7 (inferred))
[1]; [3]
  solubility at 18 h: ≥ 200 µM
[1]; [4]
  solubility at 18 h: ≥ 200 µM
[1]; [5]
  solubility at 18 h: ≥ 200 µM
[1]; [6]
  solubility at 18 h: ≥ 200 µM
[1]; [7]
  solubility at 18 h: 153 µM (≈ 693 µg/mL)
[1]; [8]
  solubility at 18 h: ≥ 200 µM
[1]; [9]
  solubility at 18 h: ≥ 200 µM
[1]; [10]
  solubility at 18 h: ≥ 200 µM
Sprague Dawley (SD) rats
  Food intake reduction 0-24 h 30 nmol/kg (%): 53%
  Food intake reduction 24-48 h 30 nmol/kg (%): 18%
[2]
  ThT pH 4.0 lag time (h): 45 h

## CC[C@H](C)[C@H](NC(=O)[C@H](C)NC(=O)CNC(=O)[C@H](Cc1ccccc1)NC(=O)[C@H](CC(N)=O)NC(=O)[C@@H]1CCCN1C(=O)[C@H](CO)NC(=O)[C@H](CO)NC(=O)[C@H](Cc1c[nH]cn1)NC(=O)[C@H](CCCNC(=N)N)NC(=O)[C@H](CC(C)C)NC(=O)[C@H](Cc1ccccc1)NC(=O)[C@H](CCC(=O)O)NC(=O)[C@H](C)NC(=O)[C@H](CC(C)C)NC(=O)[C@H](CCCNC(=N)N)NC(=O)[C@H](CCC(N)=O)NC(=O)[C@@H](NC(=O)[C@H](C)NC(=O)[C@@H]1CSSC[C@H](NC(=O)[C@@H](N)CCCCNC(=O)CC[C@H](NC(=O)CCCCCCCCCCCCCCCCCCC(=O)O)C(=O)O)C(=O)N[C@@H](CC(N)=O)C(=O)N[C@@H]([C@@H](C)O)C(=O)N[C@@H](C)C(=O)N[C@@H]([C@@H](C)O)C(=O)N1)[C@@H](C)O)C(=O)N1CCC[C@H]1C(=O)N[C@@H](CO)C(=O)N[C@@H](CO)C(=O)N[C@H](C(=O)N[C@@H](CC(N)=O)C(=O)N[C@H](C(=O)NCC(=O)N1CCC[C@H]1C(=O)N[C@@H](CCCNC(=N)N)C(=O)N[C@H](C(=O)N[C@@H](Cc1ccc(O)cc1)C(N)=O)[C@@H](C)O)C(C)C)[C@@H](C)O [Example 117] (H-K([γGlu-C20 diacid])CNTATCATQRLAEFLRHSSPNFGAIPSSTNVGPRTY-NH2; disulfide 2-7; N-terminus assumed)
[1]; [3]
  solubility at 18 h: ≥ 200 µM
[1]; [4]
  solubility at 18 h: ≥ 200 µM
[1]; [5]
  solubility at 18 h: ≥ 200 µM
[1]; [6]
  solubility at 18 h: ≥ 200 µM
[1]; [7]
  solubility at 18 h: 147 µM (≈ 654 µg/mL)
[1]; [8]
  solubility at 18 h: ≥ 200 µM
[1]; [9]
  solubility at 18 h: ≥ 200 µM
[1]; [10]
  solubility at 18 h: ≥ 200 µM
Sprague Dawley (SD) rats
  Food intake reduction 0-24 h 30 nmol/kg (%): 61%
  Food intake reduction 24-48 h 30 nmol/kg (%): 4%
[2]
  ThT pH 4.0 lag time (h): 45 h
